Consider 8 compounds from PubChem BioAssay (NCI).

Holding throughout (experiment): NCI anticancer screen, dose series, 48 h
Assay [1] relates to SR leukemia.
Assay [2] concerns MCF7 breast.
Assay [3] has as its system A549 NSCLC.
For assay [4], the system named is SK-MEL-28 melanoma.
In assay [5] the test system is SN12C renal.
The subject of assay [6] is 786-0 renal.
Assay [7] has as its system CCRF-CEM leukemia.
Assay [8] has as its system U251 CNS.
The test system of assay [9] is K-562 leukemia.
Assay [10] concerns UO-31 renal.

Structures are written as SMILES.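 Results reflect a 48-hour exposure of cells in 96-well plates to compound at five concentrations. GI50 = concentration required for 50% inhibition of growth. TGI denotes the concentration required for complete inhibition of growth.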 Bounds are passed on as bounds.

As for `COc1cc(OC)c(C(=O)/C=C/c2cccc(C(F)(F)F)c2)c(OC)c1`, the GI50 in [1] is 0.826 µM; in assay [2], 1120 nM; in assay [3], 1.48 µM; in assay [4] it was 1510 nM; in assay [5], 1.52 µM; in assay [6], 1660 nM. In addition, the GI50 in assay [7] is 1.09 µM; in [8] it was 1.01 µM; in assay [9], 1260 nM; in assay [10] it was 1430 nM. For the same compound, the TGI in assay [1] is 3.13 µM; in assay [2], 7.38 µM; in assay [3], 4.82 µM; in assay [4], 4.74 µM; in assay [5] it was 5.68 µM; in [6], 5.59 µM. The TGI in [7] stood at 3.46 µM; in assay [8], 2.1 µM; in [9], 4.83 µM; in assay [10], 5.24 µM.

For `CCc1nc(N)nc(N)c1-c1ccc(NC)c([N+](=O)[O-])c1`, the TGI was more than 29.4 µM in [1]; more than 87.3 µM in assay [2]; more than 100 µM in assay [3]; more than 100 µM in assay [4]; more than 100 µM in assay [5]; more than 100 µM in assay [6]. The TGI in [7] was more than 41.8 µM; in [8], more than 100 µM; in assay [9], more than 25.8 µM; in assay [10], more than 100 µM.

Regarding `CCCC(CCC)NCC(O)c1cc(-c2ccc(C(F)(F)F)cc2)nc(C(F)(F)F)c1` (stereo not drawn), the GI50 in [1] is 1.4 µM; in [2], 1430 nM; in assay [3] it was 1.79 µM; in assay [4], 1920 nM; in assay [5], 1.69 µM; in [6], 1370 nM. The GI50 is 2.46 µM in [7], 1.74 µM in assay [8], 1930 nM in assay [9] and 1580 nM in assay [10]. Moreover, the TGI in assay [1] stood at 3.27 µM; in assay [2] it was 2.87 µM; in assay [3] it was 3.28 µM; in assay [4], 3.45 µM; in [5], 3.2 µM; in assay [6], 2.9 µM. Also, the TGI in assay [7] amounted to 5.7 µM; in assay [8], 3.22 µM; in [9], 3.8 µM; in assay [10], 3.13 µM.

With `Cc1cc2ncnn2cc1Nc1ncc2c(n1)n(C1CCOCC1)c(=O)n2C`, the GI50 in [1] is 3.42 µM; in assay [2] it was 3210 nM; in [3], 7.22 µM; in assay [4] it was 5710 nM; in [5], 6.21 µM; in assay [6], 8290 nM. The GI50 was 4.04 µM in [7], 14.1 µM in assay [8], 16000 nM in assay [9] and 2830 nM in assay [10]. The TGI is 52.9 µM in assay [1]; more than 100 µM in assay [2]; more than 100 µM in [3]; 64.1 µM in assay [4]; more than 100 µM in assay [5]; 94.8 µM in assay [6]. Besides, the TGI in [7], in assay [8], in [9] and in assay [10] was more than 100 µM each time.

Consider `Cc1ccc(NC(=O)c2cccc(C(C)(C)C#N)c2)cc1Nc1ccc2ncn(C)c(=O)c2c1`, for which the GI50 in assay [1] is 4.79 µM; in assay [2], 4400 nM; in [3], 8.16 µM; in [4], 19.2 nM; in [5], 4.94 µM; in assay [6], 11600 nM. Further, the GI50 is 5.36 µM in assay [7], 7.19 µM in assay [8], 484 nM in assay [9] and 475 nM in [10]. Further, the TGI in [1], in [2], in [3], in assay [5], in assay [6] and in assay [7] was more than 100 µM in each case. For the same compound, the TGI in assay [8] is more than 100 µM; in [9], more than 79.3 µM; in assay [10], more than 100 µM.

`CC(C)c1c(O)c(O)c2c(c1O)C(=O)C(O)=C1C(C)(C)CCC[C@@]12C`: the TGI in assay [1] worked out at 6.59 µM; in [2], 12.7 µM; in assay [3], 14.3 µM; in assay [4], 17.7 µM; in [5], 18.7 µM; in assay [6], 13.8 µM. Also, the TGI in [7] is 7.43 µM; in assay [8] it was 11.1 µM; in assay [9], 9.69 µM; in assay [10], 7 µM.

On to `O=C(Nc1n[nH]c2cc(-c3ccccc3)ccc12)C1CC1`, for which the GI50 in assay [1] was 3.31 µM; in [2] it was 3950 nM; in assay [3], 11.6 µM; in [4], more than 22100 nM; in assay [5], 16.3 µM; in assay [6], more than 25000 nM. Also, the GI50 in assay [7] is 8.59 µM; in assay [8] it was 13.6 µM; in assay [9], 1420 nM; in assay [10], 16900 nM. Also, the TGI in [1], in assay [2], in assay [3], in [4], in assay [5] and in [6] was more than 25 µM in each case. In addition, the TGI in [7], in assay [8], in assay [9] and in assay [10] was more than 25 µM throughout.

As to `COc1ccc(C(=O)c2cc(C)c(OC)c(C)c2)c(OC)c1O`, the TGI in [1], in [2], in assay [3], in assay [4], in assay [5] and in assay [6] was more than 100 µM in each case. Further, the TGI in [7] is more than 100 µM; in [8], more than 100 µM; in assay [9], more than 100 µM; in assay [10] it was more than 54 µM. Also, the GI50 in assay [2] was 235 nM; in assay [3], 0.32 µM; in [4], 1420 nM; in [5] it was 0.0786 µM; in [6], 667 nM; in [7], 0.0323 µM. In addition, the GI50 in [8] is 0.0485 µM; in [9], 23.6 nM; in assay [10], 69.5 nM.
